How the values were obtained:
[1] = Electronic absorption spectra in organic solvents; type: physicochemical
Method: (§1) The absorption and emission spectra of dyes solutions (in the range of 10^−6 to 10^−5 M) were recorded on CM 2203 spectrofluorometer (SOLAR) in a 10 mm of absorbing layer thickness at T = 25 ± 0.1 °C. The fluorescence quantum yield (φ), the fluorescence lifetime (τ), the rate constants of radiative processes (krad), and-radiative deactivation (knr) were obtained to use by the standard procedure. The fluorescence quantum yields (φ) of compounds were measured using the standard method (using standard Rhodamine 6G). The φ and τ errors were 10–15 %. The Stokes shift ( ΔλSt ) was calculated by the formula: […]

[2] = Luminescent characteristics (fluorescence) in organic solvents; type: physicochemical; conditions: for λmaxfl: λex 470 nm
Method: as §1

ε, molar absorption coefficient ([1]; 1-butanol): 86745 L/mol/cm
λmaxabs S0→S1 ([1]; 1-butanol): 506 nm
λmaxabs S0→S2 ([1]; 1-butanol): 364–375 nm
ε, molar absorption coefficient ([1]; 1-octanol): 84427 L/mol/cm
λmaxabs S0→S1 ([1]; 1-octanol): 508 nm
λmaxabs S0→S2 ([1]; 1-octanol): 362–376 nm
ε, molar absorption coefficient ([1]; 1-propanol): 87096 L/mol/cm
λmaxabs S0→S1 ([1]; 1-propanol): 503 nm
λmaxabs S0→S2 ([1]; 1-propanol): 362–375 nm
ε, molar absorption coefficient ([1]; DMF): 85857 L/mol/cm
λmaxabs S0→S1 ([1]; DMF): 503 nm
λmaxabs S0→S2 ([1]; DMF): 364–375 nm
ε, molar absorption coefficient ([1]; DMSO): 82190 L/mol/cm
λmaxabs S0→S1 ([1]; DMSO): 504 nm
λmaxabs S0→S2 ([1]; DMSO): 363–376 nm
ε, molar absorption coefficient ([1]; chloroform): 89125 L/mol/cm
λmaxabs S0→S1 ([1]; chloroform): 508 nm
λmaxabs S0→S2 ([1]; chloroform): 363–374 nm
ε, molar absorption coefficient ([1]; cyclohexane): 91201 L/mol/cm
λmaxabs S0→S1 ([1]; cyclohexane): 509 nm
λmaxabs S0→S2 ([1]; cyclohexane): 366–376 nm
ε, molar absorption coefficient ([1]; ethanol): 81283 L/mol/cm
λmaxabs S0→S1 ([1]; ethanol): 505 nm
λmaxabs S0→S2 ([1]; ethanol): 363–374 nm
ε, molar absorption coefficient ([1]; toluene): 82444 L/mol/cm
λmaxabs S0→S1 ([1]; toluene): 511 nm
λmaxabs S0→S2 ([1]; toluene): 365–373 nm
ΔλSt, Stokes shift ([2]; 1-butanol): 10 nm
φ, fluorescence quantum yield ([2]; 1-butanol): 0.932
λmaxfl ([2]; 1-butanol): 516 nm
ΔλSt, Stokes shift ([2]; 1-octanol): 8 nm
φ, fluorescence quantum yield ([2]; 1-octanol): 0.941
λmaxfl ([2]; 1-octanol): 516 nm
ΔλSt, Stokes shift ([2]; 1-propanol): 10 nm
φ, fluorescence quantum yield ([2]; 1-propanol): 0.920
λmaxfl ([2]; 1-propanol): 513 nm
ΔλSt, Stokes shift ([2]; DMF): 10 nm
φ, fluorescence quantum yield ([2]; DMF): 0.990
λmaxfl ([2]; DMF): 513 nm
ΔλSt, Stokes shift ([2]; DMSO): 12 nm
φ, fluorescence quantum yield ([2]; DMSO): 0.963
λmaxfl ([2]; DMSO): 516 nm
Stokes shift, range ([2]; all solvents): 6–12 nm
ΔλSt, Stokes shift ([2]; chloroform): 8 nm
φ, fluorescence quantum yield ([2]; chloroform): 0.903
λmaxfl ([2]; chloroform): 516 nm
φ, fluorescence quantum yield ([2]; cyclohexane): 1.0
λmaxfl ([2]; cyclohexane): 514 nm
ΔλSt, Stokes shift ([2]; ethanol): 7 nm
φ, fluorescence quantum yield ([2]; ethanol): 0.879
λmaxfl ([2]; ethanol): 512 nm
ΔλSt, Stokes shift ([2]; toluene): 8 nm
φ, fluorescence quantum yield ([2]; toluene): 0.825
λmaxfl ([2]; toluene): 519 nm
Structure (SMILES): CC1=CC(C)=[N+]2C1=Cc1c(C)cc(C)n1[B-]2(F)F [Compound 7, 4,4-Difluoro-1,3,5,7-tetramethyl-4-bora-3a,4a-diaza-s-indacene, reference compound]
